In EP2844225B1, “AVERMECTIN POUR-ON FORMULATION WITH REDUCED WITHDRAWAL TIME” (Norbrook Laboratories Limited, priority 2012, dated 2013):
Several values for one entry are separate records, joined by “and”; a condition that tells them apart may be missing. Equal values may be shown once.

Experiment: Plasma levels of eprinomectin in cattle after topical pour-on administration (HPLC with fluorescence detection)
Settings: for Plasma concentration of eprinomectin: 0.5 mg/kg bodyweight, individual animals
Method: Twenty beef cattle of mixed gender and aged approximately between 10-20 months at the time of selection were used to determine the levels of eprinomectin in plasma following topical administration of the composition set forth in Table 1 below at a dose rate of 0.5mg/kg of eprinomectin.
The composition was administered along the midline of the back in a narrow strip between the withers and the tailhead using 60 ml syringes graduated to 1 ml. […] Blood samples were collected from each animal by venipuncture from the jugular vein using suitably labelled 9ml heparinised vacutainers. Following collection, samples were placed on ice protected from light under black cover prior to centrifugation. After centrifugation at 4500 revolutions per minute (RPM) for 5 minutes, the plasma was subsampled into 3 amber cryovials (-1ml plasma/cryovial). Plasma samples were stored at <-20°C until assayed. All samples were assayed for the determination of eprinomectin content, measured as eprinomectin B 1 a (hereafter referred to as eprinomectin) by HPLC.

[1] = bovine, in vivo, topical or ocular, 0.5 mg/kg

Q: For `CC[C@H](C)[C@H]1O[C@]2(C=C[C@@H]1C)C[C@@H]1C[C@@H](C/C=C(\C)[C@@H](O[C@H]3C[C@H](OC)[C@@H](O[C@H]4C[C@H](OC)[C@H](NC(C)=O)[C@H](C)O4)[C@H](C)O3)[C@@H](C)/C=C/C=C3\CO[C@@H]4[C@H](O)C(C)=C[C@@H](C(=O)O1)[C@]34O)O2` [eprinomectin], which AUC [1] is on record?
A: 7840 ± 2700 ng·h/mL

Q: What about the Cmax [1] of the same compound?
A: 45.5 ± 18.4 ng/mL

Q: What about the Tmax [1] of the same compound?
A: 96 h

Q: And the concentration at 24 h (bovine, in vivo, topical or ocular, 0.5 mg/kg, mean plasma concentrations ± SD, cattle, topical, 24 hours, mean of all animals)?
A: 14.3 ± 5.09 ng/mL

Q: And the concentration at 240 h (bovine, in vivo, topical or ocular, 0.5 mg/kg, mean plasma concentrations, cattle, topical, 240 hours post administration, mean ± SD)?
A: 15 ± 6.69 ng/mL

Q: What about the concentration at 408 h (bovine, in vivo, topical or ocular, 0.5 mg/kg, mean plasma concentrations, cattle, topical, 408 hours, mean ± SD) of the same compound?
A: 2.9 ± 1.15 ng/mL

Q: And the “Plasma concentration of eprinomectin” value (cattle, topical, time point 0 hrs (pre-treatment))?
A: <1.00 ng/mL

Q: And the “Plasma concentration of eprinomectin” value (cattle, topical, time point 24 hrs, 0.5 mg/kg, 1440 min)?
A: 17.6 ng/mL and 16.9 ng/mL and 20.2 ng/mL and 10.2 ng/mL and 14.6 ng/mL and 6.61 ng/mL and 5.98 ng/mL

Q: What about the “Plasma concentration of eprinomectin” value (cattle, topical, time point 48 hrs, 0.5 mg/kg, 2880 min) of the same compound?
A: 24.7 ng/mL and 36.7 ng/mL and 27.7 ng/mL and 23.5 ng/mL and 26.7 ng/mL and 12.7 ng/mL and 8.29 ng/mL

Q: What about the “Plasma concentration of eprinomectin” value (cattle, topical, time point 72 hrs, 0.5 mg/kg, 4320 min) of the same compound?
A: 30.3 ng/mL and 49.8 ng/mL and 30.1 ng/mL and 39.1 ng/mL and 36.9 ng/mL and 17.4 ng/mL and 13.5 ng/mL

Q: What about the “Plasma concentration of eprinomectin” value (cattle, topical, time point 96 hrs, 0.5 mg/kg, 5760 min) of the same compound?
A: 32.2 ng/mL and 56.9 ng/mL and 36.1 ng/mL and 38.5 ng/mL and 45.3 ng/mL and 19.9 ng/mL

Q: And the “Plasma concentration of eprinomectin” value (cattle, topical, time point 120 hrs, 0.5 mg/kg, 7200 min)?
A: 24.8 ng/mL and 76.5 ng/mL and 27.0 ng/mL and 33.8 ng/mL and 44.7 ng/mL and 25.2 ng/mL

Q: And the “Plasma concentration of eprinomectin” value (cattle, topical, time point 144 hrs, 0.5 mg/kg, 8640 min)?
A: 20.5 ng/mL and 71.7 ng/mL and 24.5 ng/mL and 40.6 ng/mL and 44.7 ng/mL and 28.3 ng/mL

Q: And the “Plasma concentration of eprinomectin” value (cattle, topical, time point 192 hrs, 0.5 mg/kg, 11520 min)?
A: 10.8 ng/mL and 44.1 ng/mL and 15.8 ng/mL and 31.1 ng/mL and 38.1 ng/mL and 21.6 ng/mL

Q: And the “Plasma concentration of eprinomectin” value (cattle, topical, time point 216 hrs, 0.5 mg/kg, 12960 min)?
A: 9.41 ng/mL and 31.1 ng/mL and 13.4 ng/mL and 31.7 ng/mL and 31.2 ng/mL and 16.8 ng/mL and 14.4 ng/mL

Q: What about the “Plasma concentration of eprinomectin” value (cattle, topical, time point 240 hrs, 0.5 mg/kg, 14400 min) of the same compound?
A: 7.12 ng/mL and 21.7 ng/mL and 10.3 ng/mL and 29.2 ng/mL and 24.3 ng/mL and 13.3 ng/mL and 11.2 ng/mL

Q: What about the “Plasma concentration of eprinomectin” value (cattle, topical, time point 312 hrs, 0.5 mg/kg, 18720 min) of the same compound?
A: 4.14 ng/mL and 10.7 ng/mL and 4.53 ng/mL and 14.5 ng/mL and 10.3 ng/mL and 8.49 ng/mL and 3.76 ng/mL

Q: And the “Plasma concentration of eprinomectin” value (cattle, topical, time point 336 hrs, 0.5 mg/kg, 20160 min)?
A: 2.67 ng/mL and 6.98 ng/mL and 3.27 ng/mL and 10.8 ng/mL and 8.74 ng/mL and 7.94 ng/mL and 3.94 ng/mL

Q: And the “Plasma concentration of eprinomectin” value (cattle, topical, time point 360 hrs, 0.5 mg/kg, 21600 min)?
A: 1.90 ng/mL and 5.46 ng/mL and 2.21 ng/mL and 8.23 ng/mL and 7.19 ng/mL and 5.54 ng/mL and 3.37 ng/mL

Q: And the “Plasma concentration of eprinomectin” value (cattle, topical, time point 408 hrs, 0.5 mg/kg, 24480 min)?
A: 1.45 ng/mL and 2.79 ng/mL and 1.28 ng/mL and 4.89 ng/mL and 4.57 ng/mL and 4.06 ng/mL and 2.13 ng/mL
